Experiment [1] deals with T1, serotoninergic receptors of type 5-HT1A (Rattus norvegicus, UniProt P19327).
T1 construct: carried out on the male rat (Sprague-Dawley); from tissue; host or cells: whole living male Sprague-Dawley rat (in vivo test)
T1 sequence (P19327 1-422): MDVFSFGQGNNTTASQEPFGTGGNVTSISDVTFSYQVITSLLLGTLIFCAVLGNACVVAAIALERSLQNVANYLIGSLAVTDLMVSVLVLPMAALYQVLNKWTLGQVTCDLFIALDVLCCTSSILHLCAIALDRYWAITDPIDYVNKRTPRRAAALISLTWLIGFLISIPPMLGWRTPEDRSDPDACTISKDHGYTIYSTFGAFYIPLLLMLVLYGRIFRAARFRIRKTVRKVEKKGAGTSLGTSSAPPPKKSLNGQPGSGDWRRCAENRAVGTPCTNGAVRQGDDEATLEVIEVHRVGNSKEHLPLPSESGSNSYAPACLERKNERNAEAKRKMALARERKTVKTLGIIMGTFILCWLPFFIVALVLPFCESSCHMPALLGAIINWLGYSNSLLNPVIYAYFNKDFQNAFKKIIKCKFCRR
Description: 5-HT syndrome (flat body posture, lower-lip retraction, fore-paw treading). Type of experiment: in vivo. The conditions noted are these: ip, male Sprague-Dawley rat, i.p. The method, then:
The experiments of the evaluation of the 5-HT syndrome are carried out on the male rat (Sprague-Dawley) by the method described by F. C. Colpaert et al. (Drug. Dev. Res. 26:21-48, 1992).

A further experiment concerns the target T2, 5-HT1A receptor (Rattus norvegicus, UniProt P19327).
T2 construct: The brain is dissected and the cortex is homogenized in 20 volumes of Tris-HCl buffer; from tissue; host or cells: rat cerebral cortex homogenate
T2 sequence (P19327 1-422): T1 sequence (P19327 1-422)
The experiment can be described thus: Affinity for the receptor 5-HT1A: displacement of [3H]8-OH-DPAT in rat cerebral cortex. Type of experiment: binding. The conditions noted are these: [3H]8-OH-DPAT 0.2 nM, 23° C., 30 minutes, average of 3 to 5 experiments, read-out: pKi (affinity for the receptor 5-HT1A) (converted). As for the experimental part:
Thus, they were the object of a study relating to their affinity for serotoninergic receptors such as 5-HT1A.
The study of the bonding to the receptor 5-HT1A is carried out in the manner described by Sleight and Peroutka (Naunyn-Schmiedebergs Arch. Pharmacol. 343:106-116, 1991). For these experiments, rat cerebral cortices are used. The brain is dissected and the cortex is homogenized in 20 volumes of Tris-HCl buffer (50 mM, pH 7.4 at 25° C.) kept at 4° C. The homogenate is centrifuged at 39000 g for 10 minutes, the final product is suspended in the same volume of buffer and centrifuged again. After being again placed in suspension under the same conditions, the homogenate is incubated for 10 minutes at 37° C. and then centrifuged again. The final product is suspended in 80 volumes of reaction buffer containing pargyline (10^- 5M), CaCl2 (4 mM) and ascorbic acid (0.1%) in Tris-HCl (50 mM, pH 7.4 at 25° C.). The final concentration of tissue in the incubation medium is 10 mg/tube.
In the saturation experiments, the reaction tubes contain 0.1 ml of different concentrations of [^3 H]8--OH--DPAT (between 0.06 and 8 nM), 0.1 ml of reaction buffer 5-HT (10^-5 M, in order to determine the non-specific bond) and 0.8 ml of tissue.
The displacement experiments are carried out in the manner described by Sleight and Peroutka (Naunyn-Schmiedebergs Arch. Pharmacol. 343:106-116, 1991). All the dilutions of products to be studied are prepared in the reaction buffer. The reaction tubes contain 0.1 ml of [^3 H]8-OH-DPAT (0.2 nM), 0.1 ml of product to be tested 6-7 concentrations (successive dilutions to 1/10) and 0.8 ml of tissue. […] The radioactivity collected on the filter is analyzed in liquid scintillation by adding 4 ml of scintillating liquid (Emulsifier Safe, Packard). All the experiments are carried out in triplicate and repeated at least 3 times.
The dissociation constant (KD) and the maximum number of bond sites (Bmax) for the radioligand are estimated on the basis of the saturation experiments using the non-linear regression program EBDA/LIGAND (Biosoft) (Munson and Rodbard: Anal. Biochem. 107:220-239, 1980). The affinity constants (Ki) of the reference products are estimated on the basis of the displacement experiments using the EBDA/LIGAND non-linear regression program. […] The data of the displacement experiments are analyzed with the one-site and two-site models respectively and the calculated F makes it possible to determine whether the two-site model is more representative of the data obtained than the one-site model. The values of pKi are given in the form of the average ±SEM of 3 to 5 experiments.
(In a radioligand displacement assay an active substance lowers the binding of a labelled ligand.)

[2] abbreviates: FBP, read-out: ED50 FBP (flat body posture).
Where [3] appears, read: FPT, read-out: ED50 FPT (reciprocal fore-paw treading).
Where [4] appears, read: LLR, read-out: ED50 LLR (lower-lip retraction).

Each structure is given as a SMILES string. Like-named read-outs stand apart in the source and are kept apart here.

By ED50 is commonly meant the dose that gives a 50% effect, or the effect in half of the subjects. As for `O=C1CC2(CCCC2)CC(=O)N1CCCCN1CCN(c2ncccn2)CC1` [Buspirone, reference compound], the ED50 in experiment [1] (setting [2]) is 5 mg/kg; in experiment [1] (setting [3]), greater than 40 mg/kg; in experiment [1] (setting [4]), 1.25 mg/kg.

Consider `Cn1nc(NCCCCN2CCN(c3cccc(C(F)(F)F)c3)CC2)c(=O)n(C)c1=O` [Compound 1, 2,4-dimethyl-3,5-dioxo-(2H, 4H)-6-(4-(4-(3-trifluoromethylphenyl)piperazino)butylamino)-1,2,4-triazine], for which the ED50 in experiment [1] (setting [2]), in experiment [1] (setting [3]) and in experiment [1] (setting [4]) was 0.31 mg/kg throughout. For the same molecule, the Ki at 5-HT1A receptor was 0.316 nM.

For the molecule `Cn1nc(NCCCCN2CCN(c3cccc(Cl)c3)CC2)c(=O)n(C)c1=O` [Compound 2, 2,4-dimethyl-3,5-dioxo-(2H,4H)-6-(4(4-(3-chlorophenyl)piperazino)butylamino)-1,2,4-triazine], the ED50 came out at 0.31 mg/kg in experiment [1] (setting [2]), 40 mg/kg in experiment [1] (setting [3]) and 0.31 mg/kg in experiment [1] (setting [4]). At 5-HT1A receptor, the Ki was 0.398 nM.

Consider `COc1ccccc1N1CCN(CCCCNc2nn(C)c(=O)n(C)c2=O)CC1` [Compound 3, 2,4-dimethyl-3,5-dioxo-(2H,4H)-6-(4-(4-(2-methoxyphenyl)piperazino)butylamino)-1,2,4-triazine], for which the Ki on 5-HT1A receptor is 0.617 nM.

As to `Cn1nc(NCCCN2CCN(c3cccc(C(F)(F)F)c3)CC2)c(=O)n(C)c1=O` [Compound 6, 2,4-dimethyl-3,5-dioxo-(2H,4H)-6-(3-(4-(3-trifluoromethylphenyl)piperazino)propylamino)-1,2,4-triazine], the Ki at 5-HT1A receptor was 16.2 nM.

For `Cn1nc(NCCCCNCC2COc3ccccc3O2)c(=O)n(C)c1=O` (stereo not shown) [Compound 9, 2,4-dimethyl-3,5-dioxo-(2H,4H)-6-(4-(1,4-benzodioxan-2 ylmethylamino)butylamino)-1,2,4-triazine], at 5-HT1A receptor, the Ki is 2.69 nM.

Regarding `Cn1nc(NCCCNCC2COc3ccccc3O2)c(=O)n(C)c1=O` (stereo not shown) [Compound 10, 2,4-dimethyl-3,5-dioxo-(2H, 4H)-6-(3-(1,4-benzodioxan-2 ylmethylamino)propylamino)-1,2,4-triazine], the Ki on 5-HT1A receptor was 3.8 nM.

In the case of `CCCCn1c(=O)[nH]nc(NCCCCN2CCN(c3cccc(C(F)(F)F)c3)CC2)c1=O` [Compound 11, 4-butyl-3,5-dioxo-(2H, 4H)-6-(4-(4-(3-trifluoromethylphenyl)piperazino)butylamino)-1,2,4-triazine], the Ki at 5-HT1A receptor was 12.6 nM.

The record behind these values is patent publication US5591743A, “3,5-dioxo-(2H,4H)-1,2,4-triazine derivatives as 5HT1A ligands” (Pierre Fabre Medicament, priority 1993, dated 1997).
